Laboratory results reported in patent US8980846B2, “Composition containing styraxlignolide A or the aglycone thereof as an active ingredient for preventing or treating asthma” (Korea Research Institute of Bioscience and Biotechnology, priority 2010, dated 2015).

Key:
Format in all cases: in vivo, Balb/c female mice
[1] = system: inflammatory cells in bronchoalveolar lavage fluid; assay: Inflammatory cell counts in bronchoalveolar lavage fluid (Diff-Quick staining); conditions: asthma-induced mice, homoegonol study, bronchoalveolar lavage fluid
Experimental: (§1) To prepare bronchial asthma-induced experimental animals, six-week-old Balb/c female mice of mean weight about 20 g were used. After one week of adaptation, individuals which had no observed abnormality on a basic physical examination were targeted. 200 μL of phosphate buffered saline (PBS)(pH 7.4) in which 2 mg of aluminum hydroxide (A8222, Sigma, St. Louis, Mo.) and 20 μg of ovalbumin (A5503, Sigma, St. Louis, Mo.) were suspended was injected into the peritoneal cavity at two-week intervals to result in sensitization. On days 28 to 30 after the first intraperitoneal administration of ovalbumin, inhalation challenge was performed for 30 min with 1% ovalbumin using an ultrasonic atomizer. 24 hours after the last antigen administration, airway hyperresponsiveness was measured. After 24 hours, a lethal dose of pentobarbital (Entobar®, Hanlim Pharm Co., Ltd.) was administered, body weight measurement and bronchotomy were performed, and bronchoalveolar lavage was performed with a total 1.2 mL of physiological saline, and then, samples were collected. […] Eight white mice were used for each group. Experimental groups for homoegonol were a group (hE7.5) in which animals were orally administered with 7.5 mg/kg homoegonol 1 hour prior to ovalbumin inhalation, a group (hE15) in which animals were orally administered with 15 mg/kg homoegonol 1 hour prior to ovalbumin inhalation, and a group (hE30) in which animals were orally administered with 30 mg/kg homoegonol 1 hour prior to ovalbumin inhalation, and five white mice were used for each group.
Bronchoalveolar lavage fluid was collected from individuals of each experimental group in <Example 2> and right after the collection, fluid was stained with trypan blue. The number of total cells except dead cells was calculated using a hemocytometer. Then, Diff-Quick staining (Sysmex, Swizerland) was performed after smear preparation with Cytospin II, and eosinophils and other inflammatory cells were differentially counted.
To examine the effect of homoegonol on asthma, variation in the numbers of asthma-related inflammatory cells was measured according to the method in <Experimental Example 3>.

ovalbumin-specific IgE = assay: IgE levels in serum and bronchoalveolar lavage fluid (ELISA); conditions: asthma-induced mice, homoegonol study; for Total serum IgE level: Table 2
Experimental: as §1
To measure serum and bronchoalveolar lavage fluid ovalbumin-specific IgE levels caused by administration of styraxlignolide A, an immunoenzyme technique was used. 20 μg/mL of ovalbumin was dissolved in a 0.1 M NAHCO3 buffer (pH 8.3), and was placed into a 96-well flat bottom ELISA plate to be coated at 4° C. overnight. Non-specific binding was blocked with PBS containing 1% bovine serum albumin, and a serum sample was diluted 1:400 and was allowed to react at room temperature for 2 hours. Then, the plate was washed well, and anti-mouse IgE monoclonal antibody was diluted 1:300 and was allowed to react for 2 hours. Then, HRP-conjugated goat anti-rat IgG polyclonal antibody which was coupled to peroxidase was diluted 1:4000 and was allowed to react at room temperature for 1 hour, and then, was washed. For color development, 3,3′,5,5′-tetramethylbezidine substrate was allowed to react, and the spectroscopic absorbance was measured at 650 nm.
To measure IgE levels which are correlated with severity of asthma to examine the effect of homoegonol on asthma, IgE levels in serum and bronchoalveolar lavage fluid were measured according to the method in <Experimental Example 4>.

[2] = system: inflammatory cells in the airway mucosa; assay: Inflammatory cell infiltration in airway mucosa, inflammatory index (H&E staining); conditions: asthma-induced mice, homoegonol study, scale 0-4
Experimental: as §1
Lungs removed from each individual were subjected to conventional formalin fixation and paraffin embedding, and permanent section slides of 4 μm thickness were prepared, and hematoxylin and eosin (H&E) staining was performed. After H&E staining, inflammatory index was measured from random five regions per section slide of each individual to calculate the mean value. Assessments were as follows: inflammatory index 0 is for the case that inflammatory cells are not observed around the bronchus; inflammatory index 1 is for the case that inflammatory cells are intermittently observed; inflammatory index 2 is for the case that thin inflammatory cell layers of one to two or three layers are observed around most of the bronchus; inflammatory index 3 is for the case that inflammatory cell layers of two or three to five or less layers are observed around most of the bronchus; and inflammatory index 4 is for the case that thick inflammatory cell layers of five or more layers are observed around most of the bronchus.
To examine the effect of homoegonol on asthma, lungs of which bronchoalveolar lavage was not performed were removed, and histopathological assessment was performed according to the method in <Experimental Example 7-1>. Since infiltration of inflammatory cells which are comprised of eosinophils, neutrophils, and macrophages are observed in an antigen-aroused bronchus, the present inventors tried to detect inflammatory cell infiltration.

goblet cells = assay: Ratio of goblet cells to bronchial epithelial cells (PAS staining); conditions: asthma-induced mice, homoegonol study
Experimental: as §1
Lungs removed from each individual were subjected to conventional formalin fixation and paraffin embedding, and permanent section slides of 4 μm thickness were prepared, and periodic acid Schiff (PAS) staining was performed to determine goblet cells. Proliferation of goblet cells was assessed by measuring the ratio of goblet cells to bronchial epithelial cells.
In accordance with the method in <Experimental Example 7-2>, the ratio of goblet cells which were determined by periodic acid-Schiff staining to bronchial epithelial cells were measured to assess proliferation of goblet cells.

[3] = system: fibrosis in subsegmental bronchi; assay: Fibrosis in subsegmental bronchi (Masson's trichrome staining); conditions: asthma-induced mice, homoegonol study; 30 mg/kg PO
Experimental: as §1

TGF-β1 = TGF-β1 in bronchoalveolar lavage fluid; conditions: asthma-induced mice, homoegonol study
Experimental: as §1
(§2) To examine the effect of homoegonol on airway remodeling, generation of TGF-β1 and IL-17 in bronchoalveolar lavage fluid was measured.

IL-17 = IL-17 in bronchoalveolar lavage fluid; conditions: asthma-induced mice, homoegonol study
Experimental: as §1, §2

COc1ccc(-c2cc3cc(CCCO)cc(OC)c3o2)cc1OC [homoegonol]
Number of cells, Other inflammatory cells ([1]; 7.5 mg/kg PO): 33.40 ± 2.3467 ×10^3 cells/mouse | Number of cells, Eosinophils ([1]; 7.5 mg/kg PO, 7.5 mg/kg): 12.80±2.50 ×10^3 cells/mouse | Number of cells, Total inflammatory cells ([1]; 7.5 mg/kg PO, 7.5 mg/kg): 42.80±7.2060 ×10^3 cells/mouse | Number of cells, Other inflammatory cells ([1]; 15 mg/kg PO): 30.00 ± 2.8267 ×10^3 cells/mouse | Number of cells, Eosinophils ([1]; 15 mg/kg PO, 15 mg/kg): 6.32±0.86 ×10^3 cells/mouse | Number of cells, Total inflammatory cells ([1]; 15 mg/kg PO, 15 mg/kg): 39.72±4.4400 ×10^3 cells/mouse | Number of cells, Other inflammatory cells ([1]; 30 mg/kg PO): 28.4 ± 3.1739 ×10^3 cells/mouse | Number of cells, Eosinophils ([1]; 30 mg/kg PO, 30 mg/kg): 5.48±2.02 ×10^3 cells/mouse | Number of cells, Total inflammatory cells ([1]; 30 mg/kg PO, 30 mg/kg): 33.88±8.1589 ×10^3 cells/mouse | Total IgE level in bronchoalveolar lavage fluid (ovalbumin-specific IgE; 7.5 mg/kg PO, 7.5 mg/kg): 65.5957 ± 11.6656 ng/mL | serum IgE levels (ovalbumin-specific IgE; 7.5 mg/kg PO): 19.22 ± 4.9287 µg/mL | Total serum IgE level (ovalbumin-specific IgE; 7.5 mg/kg PO): 10.34 ± 6.0548 µg/mL | Total IgE level in bronchoalveolar lavage fluid (ovalbumin-specific IgE; 15 mg/kg PO, 15 mg/kg): 48.4894 ± 4.1926 ng/mL | serum IgE levels (ovalbumin-specific IgE; 15 mg/kg PO): 10.74 ± 3.4612 µg/mL | Total serum IgE level (ovalbumin-specific IgE; 15 mg/kg PO): 9.94 ± 5.0656 µg/mL | Total IgE level in bronchoalveolar lavage fluid (ovalbumin-specific IgE; 30 mg/kg PO, 30 mg/kg): 23.8085 ± 3.3515 ng/mL | serum IgE levels (ovalbumin-specific IgE; 30 mg/kg PO): 8.14 ± 5.9682 µg/mL | Total serum IgE level (ovalbumin-specific IgE; 30 mg/kg PO): 8.62 ± 2.4844 µg/mL | Inflammatory index, peribronchiolar ([2]; 7.5 mg/kg PO, 7.5 mg/kg): 1.67±0.1491 | Inflammatory index, perivascular ([2]; 7.5 mg/kg PO, 7.5 mg/kg): 1.89±0.1791 | Inflammatory index, peribronchiolar ([2]; 15 mg/kg PO, 15 mg/kg): 1.40±0.1549 | Inflammatory index, perivascular ([2]; 15 mg/kg PO, 15 mg/kg): 1.70±0.1449 | Inflammatory index, peribronchiolar ([2]; 30 mg/kg PO, 30 mg/kg): 1.00±0.2449 | Inflammatory index, perivascular ([2]; 30 mg/kg PO, 30 mg/kg): 1.30±0.2025 | Goblet cells %/bronchial epithelial cell unit (goblet cells; 7.5 mg/kg PO, 7.5 mg/kg): 36.5600±11.5613% | Goblet cells %/bronchial epithelial cell unit (goblet cells; 15 mg/kg PO, 15 mg/kg): 32.4109±10.8037% | Goblet cells %/bronchial epithelial cell unit (goblet cells; 30 mg/kg PO, 30 mg/kg): 25.0956±3.4033% | area of a fibrosis stained region per 100 μm of a basement membrane perimeter [3]: 320.99 ± 46.2236 μm^2/100 μm of basement membrane | TGF-β1 concentrations in bronchoalveolar lavage fluid (TGF-β1; 7.5 mg/kg PO): 216.1875 ± 13.5904 pg/mL | TGF-β1 concentrations in bronchoalveolar lavage fluid (TGF-β1; 15 mg/kg PO): 190.4375 ± 13.0702 pg/mL | TGF-β1 concentrations in bronchoalveolar lavage fluid (TGF-β1; 30 mg/kg PO): 186.8125 ± 6.4551 pg/mL | IL-17 concentrations in bronchoalveolar lavage fluid (IL-17; 7.5 mg/kg PO): 70.3409 ± 14.2912 pg/mL | IL-17 concentrations in bronchoalveolar lavage fluid (IL-17; 15 mg/kg PO): 43.5682 ± 2.9102 pg/mL | IL-17 concentrations in bronchoalveolar lavage fluid (IL-17; 30 mg/kg PO): 27.3863 ± 5.7881 pg/mL
